Values quoted from earlier work in US10406232B2, “Oral delivery compositions for treating dermatitis disorders in mammals” (Vets Plus, Inc., priority 2015, dated 2019).

System: dendritic cells (DCs)
Conditions: through sequential p38 MAP kinase phosphorylation and caspase 3-activation

For `CC(C)[C@]12O[C@H]1[C@@H]1O[C@]13[C@]1(O[C@H]1C[C@H]1C4=C(CC[C@@]13C)C(=O)OC4)[C@@H]2O` [triptolide], the “concentration that induces apoptosis of DCs” value is given as no less than 20 ng/mL.
